Values of other authors as cited in patent US20060281913A1, “Process for the production of crystalline xylose from sugar cane bagasse, crystalline xylose obtained by said process, process for the production of xylitol from the said xylose and crystalline xylitol obtained thereby” (priority 2003, published 2006).
Where two headings read alike, the source gives them in different places.

Columns and labels:
[1] = relative to sucrose

solubility in methanol, ethanol and isopropanol | solubility in water | Compound | sweetening power ([1]; data collected from the literature) | sweetening power ([1]; in words)
sparingly soluble | highly soluble | O=C[C@H](O)[C@@H](O)[C@H](O)CO [crystalline xylose, xylose] | ~67 % that of sucrose | 
low solubility | high solubility | OC[C@@H](O)[C@H](O)[C@@H](O)CO [crystalline xylitol, xylitol] |  | equivalent to that of sucrose
